Experimental data as given in article PMC11659602, “Discovering covalent cyclic peptide inhibitors of peptidyl arginine deiminase 4 (PADI4) using mRNA-display with a genetically encoded electrophilic warhead” (Communications Chemistry, 2024).
Where “and” joins values, the source holds several entries; their conditions need not be identical. Identical values can stand only once. Like-named read-outs stand apart in the source and are kept apart here. Where a SMILES comes first, the peptide text is derived from it. Bridges are numbered along the chain shown (N, C = ends). [ ]: non-standard residue; d: D form. Orn(fluoroacetimidoyl) = N=C(CF)NCCC[C@H](N)C(=O)O

What was measured:
[1] = test system: PADIs 1-4; experiment: COLDER citrullination activity of purified PADIs 1-4 and PADI4 C645A (no inhibitor); assay type: biochemical, human; design: key to Citrullination activity of PADI4 WT / C645A (Figure S4c): absorbance at 540 nm (colorimetric citrulline readout); conditions: for Citrullination activity of PADI4 WT / C645A (Figure S4c): no inhibitor; for Absorbance at 540 nm: purified PADI enzyme, no inhibitor (Figure S10)
Method: (§1) PADI4 citrullination activity was analysed using the COLDER assay in 96-well plates. Peptide dilutions were prepared from a 500 µM stock, to give a 10 times concentrated dilution series (500 µM, 300 µM, 100 µM, 30 µM, 10 µM, 3 µM, 1 µM, 0.3 µM, 0.1 µM and 0.03 µM) in COLDER buffer (50 mM HEPES, 150 mM NaCl and 2 mM DTT, pH 7.5) containing 1% DMSO. In triplicate, each was diluted 10-fold further when mixed with 50 nM His-PADI4, 0.6 mg/mL BSA and 10 mM CaCl2, in COLDER buffer. With or without one hour of incubation, 10 mM N^α-Benzoyl-L-arginine ethyl ester hydrochloride (BAEE, Merck) was added to initiate the reaction (50 µL final volume). After 30 min at rt, EDTA (50 mM final concentration) was used to quench the reaction and 200 µL of COLDER solution containing 20 mM Diacetyl monoxime/2,3-butanedione monoxime (Merck), 0.5 mM Thiosemicarbazide (Acros Organics), 2.25 M H3PO4, 4.5 M H2SO4 and 1.5 mM NH4Fe(SO4)2.12H2O was added to each well. Samples were incubated for 20 min at 95 °C before measuring absorbance at 540 nm on a CLARIOstar Plus (BMG LABTECH). Data analysis was performed with GraphPad Prism. Data are presented as the average ± standard error of the mean from at least two independent replicates.

[2] = molecular target: T1, PADI4 (Homo sapiens, UniProt Q9UM07); experiment: COLDER inhibition assay, BAEE substrate, with or without 1 h preincubation; assay type: biochemical; conditions: for IC50: COLDER; for remaining activity at 0.003 µM: peptide 0.003 µM
T1 construct: His6; made in house
T1 sequence (Q9UM07 whole entry): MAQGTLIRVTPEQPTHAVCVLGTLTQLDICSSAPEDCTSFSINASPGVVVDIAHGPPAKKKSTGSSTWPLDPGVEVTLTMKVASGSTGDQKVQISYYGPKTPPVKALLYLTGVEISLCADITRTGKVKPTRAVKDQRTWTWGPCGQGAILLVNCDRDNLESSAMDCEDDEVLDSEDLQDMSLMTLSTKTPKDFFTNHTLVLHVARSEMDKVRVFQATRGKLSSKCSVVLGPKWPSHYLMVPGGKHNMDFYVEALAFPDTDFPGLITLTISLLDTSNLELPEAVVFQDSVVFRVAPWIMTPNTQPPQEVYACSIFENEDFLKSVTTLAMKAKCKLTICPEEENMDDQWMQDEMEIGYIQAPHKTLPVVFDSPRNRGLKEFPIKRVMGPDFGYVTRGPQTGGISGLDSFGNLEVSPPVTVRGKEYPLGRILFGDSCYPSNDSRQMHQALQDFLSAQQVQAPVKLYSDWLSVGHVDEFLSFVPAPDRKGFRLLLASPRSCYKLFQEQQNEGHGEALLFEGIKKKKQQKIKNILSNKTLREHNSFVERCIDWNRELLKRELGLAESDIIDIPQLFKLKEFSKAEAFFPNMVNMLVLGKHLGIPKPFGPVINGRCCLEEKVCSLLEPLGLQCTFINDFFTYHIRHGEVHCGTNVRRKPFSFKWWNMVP
Method: as §1

[3] = molecular target: T1, PADI4; experiment: Incubation time-dependent COLDER assay IC50(t), Krippendorff fit; assay type: biochemical; conditions: for IC50: replicates, read-out: apparent IC50
Method: To determine KI and kinact of covalent peptide inhibitors, COLDER assays were used[52]. Peptide dilutions were prepared using 5-fold dilutions from 500 µM and 300 µM to 0.8 µM and 2.4 µM, respectively, at 1% DMSO in COLDER buffer (50 mM HEPES, 150 mM NaCl and 2 mM DTT, pH 7.5). The 9 peptide dilutions were added to a 96-well plate, alongside a 1% DMSO control. An equal volume of 10 mM BAEE was added to each well and the solution was homogenised by pipette mixing. This was mixed with 50 nM His-PADI4, 0.6 mg/mL BSA and 10 mM CaCl2, in COLDER buffer, to bring the final volume to 300 µL in each well. Alternatively, His-PAD1 (100 nM) /His-PADI2 (100 nM) /His-PADI3 (250 nM) were used. For assays with PADI1 and PADI3, 10 mM N^α-benzoyl-L-arginine methyl […] (BAME) was used as the substrate instead of BAEE[48],[58],[59]. At 15-minute intervals, for 5 timepoints, 50 µL of solution was taken from each well and quenched with 10 µL EDTA (300 mM). 200 µL of COLDER solution containing 20 mM diacetyl monoxime/2,3-butanedione monoxime (Merck), 0.5 mM thiosemicarbazide (Acros Organics), 2.25 M H3PO4, 4.5 M H2SO4 and 1.5 mM NH4Fe(SO4)2.12H2O was added to each well. Samples were incubated for 20 min at 95 °C before measuring absorbance at 540 nm on a CLARIOstar Plus (BMG LABTECH). IC50 values for each time point were determined using non-linear regression with GraphPad Prism. Incubation time–dependent potency IC50(t) against incubation time was fitted to the Krippendorff equation (below) to determine KI and kinact using a Python script[53],[59]. […] IC50t=KI1+S/KM⋅2−2e^−ηIC50⋅kinact⋅t/ηIC50⋅kinact⋅t−1 WhereηIC50=IC50t/KI1+S/KM+IC50t

[4] = molecular target: T1, PADI4; experiment: Surface plasmon resonance (SPR), single cycle kinetics; assay type: binding
Method: S8. Surface plasmon resonance (SPR)
Using a Biacore S200 (GE Healthcare), biotinylated His-PADI4 (80 nM) was immobilised on a CAP chip (GE Healthcare) to a response unit of approx. 3000. At 25 °C, single cycle kinetics mode was used with 5 samples of a 3-fold dilution series of peptides PADI4_3_H4(2), cP4_2, […]
mM HEPES, 150 mM NaCl, 10 mM CaCl2, 0.05% Tween-20, 0.1% DMSO (pH 7.5). After each cycle, regeneration of the chip was carried out as per the manufacturer’s protocol. Data were analysed with the Biacore S200 Evaluation Software, each in triplicate. Warhead-containing peptides were analysed using the two-state reaction model, with the rate constant for the reverse second step (k-2) set to zero. The equilibrium constant of the reversible binding step, Ki, was calculated as the ratio of k-1/k+1 and the rate constant of the irreversible chemical step, kinact, as k+2. The Arg4, Cit4 and Me4 peptides were fitted using a 1:1 binding model. […]

[5] = Krippendorff fit of IC50 vs time

Molecule: C645A
- Citrullination activity of PADI4 WT / C645A (Figure S4c) ([1]; +EDTA): 0.268 and 0.278 and 0.279 and 0.186 and 0.254 and 0.214
- Citrullination activity of PADI4 WT / C645A (Figure S4c) ([1]; -EDTA): 0.211 and 0.22 and 0.222 and 0.281 and 0.285 and 0.262

Molecule: PADI2
- Absorbance at 540 nm [1]: 0.974 and 1.004 and 1.007 and 0.7767 and 0.7637 and 0.7657

Molecule: CC(C)[C@@H]1NC(=O)[C@@H](Cc2ccc(O)cc2)NC(=O)CSC[C@@H](C(=O)NCC(N)=O)NC(=O)[C@H](Cc2ccc(O)cc2)NC(=O)[C@H](CCCCN)NC(=O)[C@H](Cc2c[nH]c3ccccc23)NC(=O)[C@H](CCC(=O)O)NC(=O)[C@H](CCCCN)NC(=O)[C@H](CCCNC(=N)CF)NC(=O)[C@H](CO)NC(=O)[C@H](Cc2ccc(O)cc2)NC1=O [cP4_7, yVYS(2)KEWKYCG] ({CH2CO}-[dY]VYS[Orn(fluoroacetimidoyl)]KEWKYCG-NH2; thioether N-11)
- IC50 ([2]; 1 h preincubation of peptide and PADI4, 10 mM CaCl2, read-out: IC50 Values 1 h preincubation): 0.16 ± 0.02 µM
- IC50 ([2]; no preincubation of peptide and PADI4, 10 mM CaCl2, read-out: IC50 Values 0 h preincubation): 8 ± 1.2 µM
- remaining activity at 0.003 µM ([2]; T=0, values starred, read-out: PADI4 activity normalised to 0.1% DMSO): 99.1%
- remaining activity at 0.003 µM ([2]; T=1, read-out: PADI4 activity normalised to 0.1% DMSO): 99.2%
- remaining activity at 0.01 µM ([2]; peptide 0.01 µM, T=0, values starred, read-out: PADI4 activity normalised to 0.1% DMSO): 99.2%
- remaining activity at 0.1 µM ([2]; peptide 0.1 µM, T=0, read-out: PADI4 activity normalised to 0.1% DMSO): 100%
- remaining activity at 1 µM ([2]; peptide 1 µM, T=0, read-out: PADI4 activity normalised to 0.1% DMSO): 93.8%
- remaining activity at 3 µM ([2]; peptide 3 µM, T=0, read-out: PADI4 activity normalised to 0.1% DMSO): 79%
- remaining activity at 10 µM ([2]; peptide 10 µM, T=0, read-out: PADI4 activity normalised to 0.1% DMSO): 49.3%
- remaining activity at 30 µM ([2]; peptide 30 µM, T=0, read-out: PADI4 activity normalised to 0.1% DMSO): 20.9%
- kinact/KI [3]: 300 M⁻¹ s⁻¹
- IC50 ([3]; 15 mins): 27.7 µM and 48.2 µM and 40.3 µM
- IC50 ([3]; 30 mins): 12.5 µM and 21.4 µM and 18.5 µM
- IC50 ([3]; 45 mins): 8.85 µM and 10 µM and 8.94 µM
- IC50 ([3]; 60 mins): 6.22 µM and 7.03 µM and 7.47 µM
- IC50 ([3]; 75 mins): 5.35 µM and 5.67 µM and 6.53 µM
- Ki [3, 5]: 4.3 ± 1.1 µM
- kinact [3, 5]: 0.00128 s⁻¹
- kinact/KI [4]: 5720 M⁻¹ s⁻¹
- k2 / kinact ([4]; each replicate): 0.0094 s⁻¹
- kinact ([4]; each replicate, read-out: k2 / kinact): 0.0086 s⁻¹
- kinact ([4]; two-state reaction model, k+2, read-out: SPR kinact (converted)): 0.00917 s⁻¹
- Ki ([4]; two-state reaction model, k-1/k+1): 1.6 ± 0.1 µM

Molecule: PADI4
- Absorbance at 540 nm [1]: 1.538 and 1.537 and 1.638 and 1.921 and 1.811 and 1.856

Molecule: WT
- Citrullination activity of PADI4 WT / C645A (Figure S4c) ([1]; +EDTA): 0.259 and 0.261 and 0.247 and 0.193 and 0.23 and 0.231
- Citrullination activity of PADI4 WT / C645A (Figure S4c) ([1]; -EDTA): 1.114 and 1.151 and 1.275 and 1.3 and 1.248

B1: PADI1 (protein, UniProt Q9ULC6 1-663, looked up)
Protein-arginine deiminase …: MAPKRVVQLSLKMPTHAVCVVGVEAHVDIHSDVPKGANSFRVSGSSGVEVFMVYNRTRVKEPIGKARWPLDTDADMVVSVGTASKELKDFKVRVSYFGEQEDQALGRSVLYLTGVDISLEVDTGRTGKVKRSQGDKKTWRWGPEGYGAILLVNCDRDNHRSAEPDLTHSWLMSLADLQDMSPMLLSCNGPDKLFDSHKLVLNVPFSDSKRVRVFCARGGNSLSDYKQVLGPQCLSYEVERQPGEQEIKFYVEGLTFPDADFLGLVSLSVSLVDPGTLPEVTLFTDTVGFRMAPWIMTPNTQPPEELYVCRVMDTHGSNEKFLEDMSYLTLKANCKLTICPQVENRNDRWIQDEMEFGYIEAPHKSFPVVFDSPRNRGLKDFPYKRILGPDFGYVTREIPLPGPSSLDSFGNLDVSPPVTVGGTEYPLGRILIGSSFPKSGGRQMARAVRNFLKAQQVQAPVELYSDWLSVGHVDEFLTFVPTSDQKGFRLLLASPSACLKLFQEKKEEGYGEAAQFDGLKHQAKRSINEMLADRHLQRDNLHAQKCIDWNRNVLKRELGLAESDIVDIPQLFFLKNFYAEAFFPDMVNMVVLGKYLGIPKPYGPIINGRCCLEEKVQSLLEPLGLHCIFIDDYLSYHELQGEIHCGTNVRRKPFPFKWWNMVP
- Absorbance at 540 nm [1]: 1.397 and 1.419 and 1.464 and 1.243 and 1.309 and 1.332

B2: PADI3 (protein, UniProt Q9ULW8 1-664, looked up)
Protein-arginine deiminase …: MSLQRIVRVSLEHPTSAVCVAGVETLVDIYGSVPEGTEMFEVYGTPGVDIYISPNMERGRERADTRRWRFDATLEIIVVMNSPSNDLNDSHVQISYHSSHEPLPLAYAVLYLTCVDISLDCDLNCEGRQDRNFVDKRQWVWGPSGYGGILLVNCDRDDPSCDVQDNCDQHVHCLQDLEDMSVMVLRTQGPAALFDDHKLVLHTSSYDAKRAQVFHICGPEDVCEAYRHVLGQDKVSYEVPRLHGDEERFFVEGLSFPDAGFTGLISFHVTLLDDSNEDFSASPIFTDTVVFRVAPWIMTPSTLPPLEVYVCRVRNNTCFVDAVAELARKAGCKLTICPQAENRNDRWIQDEMELGYVQAPHKTLPVVFDSPRNGELQDFPYKRILGPDFGYVTREPRDRSVSGLDSFGNLEVSPPVVANGKEYPLGRILIGGNLPGSSGRRVTQVVRDFLHAQKVQPPVELFVDWLAVGHVDEFLSFVPAPDGKGFRMLLASPGACFKLFQEKQKCGHGRALLFQGVVDDEQVKTISINQVLSNKDLINYNKFVQSCIDWNREVLKRELGLAECDIIDIPQLFKTERKKATAFFPDLVNMLVLGKHLGIPKPFGPIINGCCCLEEKVRSLLEPLGLHCTFIDDFTPYHMLHGEVHCGTNVCRKPFSFKWWNMVP
- Absorbance at 540 nm [1]: 1.346 and 1.369 and 1.38 and 1.26 and 1.243 and 1.268
